# Laboratory results as given in patent US8969395B2, “Triterpenoid derivatives useful as antiproliferative agents” (Universidade de Coimbra, priority 2009, dated 2015).
# Assays:
# HepG2 cells = assay: Apoptosis, Annexin V-FITC/PI FACS, HepG2; format: cell-based, human; settings: HepG2, at IC50, 72 h; for effectiveness at inducing apoptosis: FIG. 8; for apoptosis (% of cells, early plus late): in comparison with untreated controls
# Protocol: (§1) Assessment of apoptosis was performed 72 h after treatment with derivatives at their IC50. Briefly, the same number of HepG2, HeLa, Jurkat and Chang liver cells as in the cell cycle assay were treated with compounds 20, 44, 46 and betulinic acid 2, as described above. Cells were collected washed once in ice-sold binding buffer (10 mM HEPES/NaOH, pH 7.4, 140 mM NaCl, 2.5 mM CaCl2) and ressuspended in the same buffer (95 μl) at a maximum, of 8×10^5 cells/ml. Annexin V-FITC conjugate (1 μg/ml) was added and incubated for 30 min at room temperature in darkness. Just before FACS analysis, cells were stained with 20 μl of […]. Approximately 1×10^4 cells were analysed for each histogram and experiments were performed three times with triplicates per experiment. FACS analysis using Annexin V-FITC staining and PI accumulation was used to differentiate early apoptotic cells (Annexin V^+ and PI^−) from necrotic or late apoptotic cells (Annexin V^+ and PI^+). […] In comparison with untreated controls, compound 44 treatment of HepG2 cells generated apoptosis in 53% of cells (42% of early apoptosis and 11% of late apoptosis), compound 46 generated apoptosis in 38% of cells (28% of early apoptosis plus 10% late apoptosis) and compound 20 induced apoptosis in 29% of cells (22% of early apoptosis plus 7% late apoptosis) (FIG. 8).
# HeLa cells [1] = assay: Cell cycle analysis by flow cytometry (FACS, PI), HeLa; format: cell-based, human; settings: compound at its IC50, 72 h
# Protocol: The effects on the cell cycle of some of these compounds were assessed through flow cytometry by using a fluorescence-activated cell sorter (FACS) (Table 5 below). For this assay 2.3×10^5 HepG2 cells/well, 2.9×10^4 HeLa cells/well, 1.6×10^5 Jurkat cells/well and 1.4×10^5 Chang liver cells/well were plated in 6 well plates with 2 ml of medium. The number of cells was determined by the relationship number of cells/area wells, considering the number of cells that were cultured in 96-well plates. […] Chang liver cells were incubated with compounds 20, […] at concentrations corresponding to the IC80 determined for HepG2 at 72 h. Following 72 h. of incubation, cells were harvested by mild trypsinization, collected by centrifugation and stained in ice-cold Tris-buffered saline (TBS), containing 1 mg/ml PI, 10 mg/ml RNAse free of DNAase and 0.1% Igepal CA-630 for 1 h at 4° C. FACS analysis was carried out at 488 nm in an Epics XL flow cytometer (Coulter Corporation, Hialeah, Fla.). Data from 8×10^3 cells were collected and analyzed using Multicycle program (Phoenix Flow Systems, San Diego, Calif.). All experiments were performed three times with three replicates per experiment. […] To explore the selectivity of the effect on tumor cells, we also tested compounds 20, 44 and 46 in a non-malignant cell line. Chang liver cells were treated with the compounds at the IC80 values determined for HepG2 after 72 h of incubation and no effect was observed, indicating a selective effect of these agents (Table 5 below).
# HeLa cells [2] = assay: Apoptosis, Annexin V-FITC/PI FACS, HeLa; format: cell-based, human; settings: at IC50, 72 h, FIG. 8
# Protocol: as §1
# Jurkat (human leukemia) = assay: Cytotoxic activity, XTT assay, Jurkat; format: cell-based; settings: 72 h, mean ±SD
# How it was run: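 HepG2, HeLa and Chang liver cells (8×10^3, 1×10^3, 5×10^3 cells/well) pre-grown 24 h, treated 72 h in triplicate (DMSO <0.1%), MTT 0.5 mg/ml 1 h, read 550 nm. Jurkat (5.5×10^3 cells/well) treated 72 h, XTT 4 h, read 450 nm. IC50 as mean±SD of at least three experiments.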
# Jurkat cells = assay: Apoptosis, Annexin V-FITC/PI FACS, Jurkat; format: cell-based, human; settings: at IC50, 72 h, FIG. 8
# Protocol: as §1
# [3] = system: HeLa (human cervical adenocarcinoma); assay: Cytotoxic activity, MTT assay, HeLa; format: cell-based; settings: 72 h, mean ±SD
smiles,measurement,setting,value
"C=C(C)[C@@H]1CC[C@]2(CO)CC[C@]3(C)[C@H](CC[C@@H]4[C@@]5(C)CC[C@H](OC(=O)n6ccnc6)C(C)(C)[C@@H]5CC[C@]43C)[C@@H]12 [Compound 20, 28-hydroxy-lup-20(29)-en-3β-yl-1H-imidazole-1-carboxylate]",early apoptosis (Annexin V+ and PI-),HepG2 cells,22%
same,late apoptosis (Annexin V+ and PI+),HepG2 cells,7%
same,effectiveness at inducing apoptosis,HepG2 cells,extremely effective
same,"apoptosis (% of cells, early plus late)",HepG2 cells,29 % of cells
same,Phase of cell cycle (% of cells) G0/G1,HeLa cells [1],50.6 ± 1.3 % of cells
same,Phase of cell cycle (% of cells) G2/M,HeLa cells [1],13.0 ± 1.4 % of cells
same,Phase of cell cycle (% of cells) S,HeLa cells [1],36.4 ± 2.4 % of cells
same,effectiveness at inducing apoptosis,HeLa cells [2],extremely effective
same,IC50,Jurkat (human leukemia),11.1 ± 1.3 µM
same,effectiveness at inducing apoptosis,Jurkat cells,extremely effective
same,IC50,[3],3 ± 0.2 µM
"C=C(C)[C@@H]1CC[C@]2(C(=O)n3ccnc3)CC[C@]3(C)[C@H](CC[C@@H]4[C@@]5(C)CCC(=O)C(C)(C)[C@@H]5CC[C@]43C)[C@@H]12 [Compound 44, 28-(1H-imidazol-1-yl)-lup-20(29)-en-3,28-dione]",early apoptosis (Annexin V+ and PI-),HepG2 cells,42%
same,late apoptosis (Annexin V+ and PI+),HepG2 cells,11%
same,effectiveness at inducing apoptosis,HepG2 cells,most effective
same,"apoptosis (% of cells, early plus late)",HepG2 cells,53 % of cells
same,Phase of cell cycle (% of cells) G0/G1,HeLa cells [1],53.1 ± 1.1 % of cells
same,Phase of cell cycle (% of cells) G2/M,HeLa cells [1],13.8 ± 1.1 % of cells
same,Phase of cell cycle (% of cells) S,HeLa cells [1],33.1 ± 0.9 % of cells
same,effectiveness at inducing apoptosis,HeLa cells [2],most effective
same,IC50,Jurkat (human leukemia),1.4 ± 0.2 µM
same,effectiveness at inducing apoptosis,Jurkat cells,most effective
same,IC50,[3],2 ± 0.3 µM
"C=C(C)[C@@H]1CC[C@]2(C(=O)n3ccnc3)CC[C@]3(C)[C@H](CC[C@@H]4[C@@]5(C)C=CC(=O)C(C)(C)[C@@H]5CC[C@]43C)[C@@H]12 [Compound 46, 28-(1H-imidazol-1-yl)-lup-1,20 (29)-dien-3,28-dione]",early apoptosis (Annexin V+ and PI-),HepG2 cells,28%
same,late apoptosis (Annexin V+ and PI+),HepG2 cells,10%
same,effectiveness at inducing apoptosis,HepG2 cells,extremely effective
same,"apoptosis (% of cells, early plus late)",HepG2 cells,38 % of cells
same,Phase of cell cycle (% of cells) G0/G1,HeLa cells [1],64.6 ± 2.4 % of cells
same,Phase of cell cycle (% of cells) G2/M,HeLa cells [1],9.7 ± 1.3 % of cells
same,Phase of cell cycle (% of cells) S,HeLa cells [1],25.6 ± 1.5 % of cells
same,effectiveness at inducing apoptosis,HeLa cells [2],extremely effective
same,IC50,Jurkat (human leukemia),2.3 ± 0.3 µM
same,effectiveness at inducing apoptosis,Jurkat cells,extremely effective
same,IC50,[3],3 ± 0.2 µM
